The results in this text go back to patent US7122335B1, “Compounds and methods to enhance rAAV transduction” (priority 1999, dated 2006).

Structures are written as SMILES. Entries after “also recorded” stand apart in the source; their conditions may differ. Counter-ions that a name gives are not always drawn. Like-named read-outs stand apart in the source and are kept apart here. Peptide text beside a SMILES is read from it.

Assay type in all cases: cell-based
Assay [1] relates to primary human fibroblasts. The method, then:
FIG. 6. Primary confluent fibroblasts were infected with AV.GFP3ori virus at an MOI=1000 particles/cell following treatment with brefeldin A (10 μg/ml), vinblastine (22 μM), cytochalasin B (1 μM), NH4Cl (2 mM), chloroquine (20 μm), LLnL (400 μM), and Z-LLL (4 μM), final concentration indicated in brackets. Cells were harvested at 96 hours post-infection and the transduction efficiency was compared to untreated rAAV infected cells by FACS analysis for GFP expression. To control for non-specific effects caused by toxicity of the compounds, the percentage of live cells was also assessed by the absence of propidium iodide incorporation.
80% confluent human primary fibroblasts were infected with AV.GFP3ori at an moi of 1000 DNA particles/cell. FIG. 16A depicts GFP transgene expression in the absence (left photographs) and presence of 40 μM LLnL (right photographs) at 96 hours post-infection. […] Top and bottom panels represent bright field and FITC-channel fluorescent photomicrographs, respectively. The mean (+/−SEM, N=3) percentage of cells transduced with rAAV, as measured by FACS sorting of GFP expressing cells, is presented in the bar graph of FIG. 16B. […] In this study, rAAV from infected cells was first immunoprecipitated with anti-VP1,2,3 (AAV-2 capsid) monoclonal antibody followed by Western blot detection of ubiquitin side chains using an anti-ubiquitin monoclonal antibody. […] Epithelia were infected with AV.GFP3ori (10,000 particles/cell) from the basolateral surface following treatment with ubiquitin ligase inhibitor dipeptides (0.2 mM H-Leu-Ala-OH and 0.2 mM H-His-Ala-OH).
Initial studies were performed in confluent primary human fibroblasts since dose titrations and toxicity could be quickly assessed. Selected compounds were used to treat fibroblast monolayers prior to rAAV infection. rAAV transduction was assessed at 96 hours post-infection by FACS analysis, and the percentage of dead cells was simultaneously assessed by incorporation of propidium iodide.
These tripeptides are structurally related to chloroquine but have different lipid solubility and specificity for cysteine proteases (Seglen, 1983). These molecules decrease endosomal degradation of molecules by a mechanism different than altering pH.
Transduction of polarized airway epithelial cells and primary human fibroblasts. rAAV infection of fully differentiated bronchial cells was performed as described in Duan et al. (1998). For infections from the apical surface of the airway cells, 5 μl rAAV was mixed with 50 μl of culture media and applied directly onto the apical compartment of Millicell inserts (MOI=10,000 particles/cell). During apical infection, the basolateral side of the Millicell was continuously bathed in culture media. Gene transfer to the basal side was performed by inverting Millicell inserts and applying viral vector to the bottom of the supporting filter membrane in a 50 μl volume for 2 hours. Subsequently, Millicell inserts were returned to the upright position, in the continued presence of the original viral inoculum plus an additional 450 μl of media. For both apical and basolateral infections, rAAV containing media was removed after 24 hours and replaced with either fresh culture media (for the basal side) or exposed to air (for the apical side). To test the effect of different agents on the efficiency of AAV transduction in polarized airway cells, 1 μl of each solution was mixed with AAV prior to infection of airway epithelia. Agents were usually presented during the 24 hours AAV infection period unless indicated otherwise.

The subject of assay [2] is human bronchial epithelia. The assay can be described thus: Southern blot of Hirt DNA for rAAV genomes in polarized airway epithelia. The conditions noted are these: hypotonic EGTA treatment alone, apical infection. The protocol: FIGS. 15A–C. Examination of rAAV endocytosis by Southern blot analysis of viral DNA. Hirt DNA from AV.GFP3ori infected or mock infected (Lanes 1 and 7 in both FIGS. 15A and 15B) human bronchial epithelia were extracted for a direct examination of viral genomes by Southern blotting against a P^32-labeled EGFP probe. FIG. 15A depicts viral binding studies in the presence and absence of LLnL with or without EGTA treatment prior to apical or basolateral infection for 1 hour at 4° C. Cell surface-bound virus was completely removed by trypsin (FIG. 15A, lanes 2 through 6). To determine the amount of the surface-bound rAVV, cells were infected with AV.GFP3ori for 1 hour at 4° C. and were not treated with trypsin prior to Hirt DNA extraction. Panel A: lane 8: apical AAV infection; lane 9: apical AAV infection in the presence of LLnL; lane 10: cells were pre-treated with hypotonic EGTA prior to apical infection in the presence of LLnL; lane 11: basolateral infection; lane 12: basolateral infection in the presence of LLnL. FIG. 15B depicts the results of studies evaluating rAAV internalization from either the apical or the basolateral surface in the presence or absence of LLnL, and the internalization from the apical surface after combined treatment with hypotonic EGTA and LLnL. To detect the net amount of the internalized viral genome, all samples in FIG. 15B were treated with trypsin just before Hirt DNA was harvested. The extent of the internalized virus at 4 hours (FIG. 15B, lanes 2 through 6) and 24 hours (FIG. 15B, lanes 8 through 12) incubation at 37° C. after infection is represented by the intensity of the 1.6 kb single stranded viral genome band. FIG. 15B; lane 2; apical AAV infection for 4 hours; lane 3: apical AAV infection in the presence of LLnL for 4 hours; lane 4: cells were pre-treated with hypotonic EGTA prior to apical infection in the presence of LLnL for 4 hours; lane 5: basal infection for 4 hours; lane 6: basolateral infection in the presence of LLnL for 4 hours; lane 8: apical infection for 24 hours; lane 9: apical infection in the presence of LLnL for 24 hours; lane 10: cells were pre-treated with hypotonic EGTA prior to apical infection in the presence of LLnL for 24 hours; lane 11: basolateral infection for 24 hours; lane 12: basolateral infection in the presence of LLnL for 24 hours. […]
Molecular analysis of rAAV viral genomes owing infection of polarized airway epithelial cultures. […] Following binding, the extent of viral internalization was assessed by continuing incubations in the presence of virus at 37° C. for 4–24 hours. […] The 1.6 kb single stranded viral DNA, the 2.7 kb double stranded circular intermediate, and the 4.7 kb double stranded replication from viral genome were detected with a transgene EGFP specific probe at 5×10^6 cpm/ml. […]

Assay [3] deals with polarized human bronchial epithelial cells. Particulars: for rAAV transduction from the basolateral surface with ubiquitin ligase (E3) inhibitors: both dipeptides combined, 2 mM pretreatment 60 minutes, 0.2 mM during 24 hours infection; for rAAV transduction from the apical (mucosal) surface, in words: apical infection, agent at time of infection (LLnL 40 μM). The method, then:
FIGS. 7A and 7B. Proteasome inhibitors differentially augment rAAV transduction from the apical or basolateral surfaces of airway epithelia. The efficiency and time course of rAAV transduction were evaluated in polarized airway epithelial cultures following infection with rAV.GFPori3 (MOI=10,000 particles/cell) in the presence or absence of 40 μM LLnL. Transgene expression was monitored by indirect fluorescence microscopy at the indicted time points by quantifying the mean number of GFP positive cells per 10× field (mean +/−SEM of 3 independent samples for each time point). The effect of LLnL treatment was compared between matched sets of tissue samples at each time point following infection from the apical (FIG. 7A) or basolateral (FIG. 7B) surfaces. The photomicrographs on the right side of each figure illustrate representative 20× fields for the 3 and 22 day post-infection time points.
FIG. 9. Effects of different agents on AAV transduction from the basal surface of polarized bronchial epithelia. Fully differentiated human bronchial airway epithelia were treated with the indicated agents at the time of AAV infection (MOI=10,000 particles/cell) from the basolateral surface. […] Since most of the tested agents (except for hydroxyurea) were dissolved in DMSO, a vehicle control of 1% (vol/vol) DMSO was also performed to exclude the possibility of a non-specific effect. GFP expression was monitored at 48 hours post-infection by counting the number of GFP positive cells per 10 random 10× fields in the culture dishes. The data represent the mean +/−SEM of three independent infections for each tested chemical.
FIG. 10. The proteasome inhibitor LLnL preferentially induces AAV transduction in ciliated cells. The cell types transduced by AAV were examined by alkaline phosphatase staining 3 days following basolateral infection of polarized epithelial cultures with AV.Alkphos infection (MOI=10,000 particles/cell) in the presence of or absence of 40 μM LLnL. […] 8 μm paraffin sections were used to histologically quantify the types of cells transduced. Three classifications were used, ciliated cells (with alkphos expression localized to the apical membrane and cilia), basal cells residing in the lower half of the epithelium with no contact with the lumen, and non-ciliated, columnar cells. Panel C (without LLnL) and D (with LLnL) show representative neutral red counter-stained cross-sections for each condition. The numbers of alkphos stained cells/2000 epithelial cells for the various cell types transduced by AAV are presented in panel E (mean +/−SEM from three independent Millicell insert samples).
FIGS. 11A and 11B. Optimization of LLnL-enhanced transduction in polarized bronchial epithelia. Differentiated transwell cultures were infected with AV.GFP3ori (10,000 particles/cell) from either the basolateral (FIG. 11A) or the apical (FIG. 11B) surface with the indicated treatments involving LLnL and/or EGTA. All infections were carried out for 24 hours and GFP transgene expression was monitored by indirect fluorescent microscopy at the indicated times. Data represent the mean (+/−SEM, N=6) for each experimental condition. Experiments were performed in triplicate on transwells derived from samples obtained from two different patients. […]

Where [4] appears, read: confluent fibroblasts, AV.GFP3ori MOI 1000, 96 hours post-infection, brefeldin A 10 μg/ml, vinblastine 22 μM, cytochalasin B 1 μM, NH4Cl 2 mM, chloroquine 20 μm, LLnL 400 μM, Z-LLL 4 μM.

For `C[C@H]1CCC/C=C/[C@@H]2C[C@H](O)C[C@H]2[C@H](O)/C=C/C(=O)O1` [BFA, brefeldin A], the “rAAV transduction (GFP expression) compared to untreated rAAV infected cells” value in assay [1] (setting [4]) is reported as “significant enhancement of rAAV transduction”. For `O=C(O)CN(CCOCCOCCN(CC(=O)O)CC(=O)O)CC(=O)O` [EGTA], the “increase in persistence of AAV DNA” value in assay [2] is “less than 4 fold”. In the case of `C[C@H](NC(=O)[C@@H](N)Cc1cnc[nH]1)C(=O)O` [H-His-Ala-OH] (H-His-Ala-OH), in assay [3], the “rAAV transduction from the basolateral surface with ubiquitin ligase (E3) inhibitors” value is given as “enhanced rAAV transduction”. On the same count and under the same terms, as for `CC(C)C[C@H](N)C(=O)N[C@@H](C)C(=O)O` [H-Leu-Ala-OH] (H-Leu-Ala-OH), the entry is “enhanced rAAV transduction”. On to `Cl.N` [NH4Cl], for which, in assay [1], the “rAAV transduction (GFP expression) compared to untreated rAAV infected cells” value was “significantly inhibited rAAV transduction”. `CC[C@@]1(O)C(=O)OCc2c1cc1n(c2=O)Cc2cc3ccccc3nc2-1` [camptothecin]: in assay [3], the “rAAV transduction from the apical (mucosal) surface, in words” value is “none of these agents facilitated rAAV transduction from the apical surface”. On to `CCN(CC)CCCC(C)Nc1ccnc2cc(Cl)ccc12` (stereo not drawn) [chloroquine], for which the “rAAV transduction (GFP expression) compared to untreated rAAV infected cells” value in assay [1] (setting [4]) is “significantly inhibited rAAV transduction”. The same measure, in the same setting: the same measure for `C=C1[C@@H](C)[C@H]2[C@H](Cc3ccccc3)NC(=O)[C@]23OC(=O)/C=C/[C@H](O)CCC[C@@H](C)C/C=C/[C@H]3[C@@H]1O` [cytochalasin B]: “significant decrease in rAAV transduction”. Consider `COc1cc([C@@H]2c3cc4c(cc3[C@@H](O[C@@H]3O[C@@H]5CO[C@@H](C)O[C@H]5[C@H](O)[C@H]3O)[C@H]3COC(=O)[C@H]23)OCO4)cc(OC)c1O` [etoposide], for which, in assay [3], the “rAAV transduction from the apical (mucosal) surface, in words” value is given as “none of these agents facilitated rAAV transduction from the apical surface”. Still for that read-out and setting: as for `O=c1c(-c2ccc(O)cc2)coc2cc(O)cc(O)c12` [genistein], the entry is “none of these agents facilitated rAAV transduction from the apical surface”; as for `NC(=O)NO` [hydroxyurea], “none of these agents facilitated rAAV transduction from the apical surface”. With `CC[C@]1(O)C[C@@H]2CN(CCc3c([nH]c4ccccc34)[C@@](C(=O)OC)(c3cc4c(cc3OC)N(C)[C@H]3[C@@](O)(C(=O)OC)[C@H](OC(C)=O)[C@]5(CC)C=CCN6CC[C@]43[C@@H]65)C2)C1` [vinblastine, vinblastine sulfate], the “rAAV transduction (GFP expression) compared to untreated rAAV infected cells” value in assay [1] (setting [4]) is “little effect on rAAV transduction; also recorded: did not inhibit rAAV-2 transduction”.
